Results on one compound are retold here after patent publication US20020071872A1, “Laxative composition” (priority 1999, published 2002).

The subject of experiment [1] is fecal output. The note with it: 10-100 mg/kg bisacodyl given orally, rat; cited from earlier work.
The subject of experiment [2] is small bowel transit. Nature of the experiment: Small bowel (small intestinal) transit of a charcoal marker in rats. It is filed as in vivo, rat. As for the experimental part:
A study was performed to characterize and compare the effects of bisacodyl, simethicone and combinations of bisacodyl and simethicone on small bowel transit time. Small intestinal transit time was studied as a surrogate for […] in the rat. Leng-Peschlow, E., “Effect of Sennosides A+B and Bisacodyl on rat large intestine”, Pharmacology, vol. 38 (1989), 310-318 (1989). […] The prokinetic efficacy of bisacodyl in the small intestine may differ from that observed in the large intestine by Leng-Psechlow. For the small intestinal transit model a sub-therapeutic dose of 25mg/kg bisacodyl was chosen. Rats were dosed with a suspension of powdered charcoal, which served as a non-absorbable marker. The rats were also dosed with bisacodyl USP 23 (ZetaPharm, Inc.) and simethicone supplied as […]® drops and activated charcoal (Sigma Chemical). Six treatments were compared a control; simethicone 15 mg/kg; bisacodyl 25 mg/kg; and bisacodyl 25 mg/kg and simethicone at 5, 10 or 15 mg/kilogram. Dosing preparations of charcoal suspension (10 weight percent) were made freshly each day by adding dry powder to 0.5 percent methylcellulose in water and stirring. Dosing preparations were made each day by adding the appropriate quantity of bisacodyl and/or simethicone drops to the charcoal suspension. All treatments were administered orally, using the dose volume of 10 milliliters per kilogram. Sixty minutes after dosing, the rats were sacrificed and small bowel transit rate was determined by identifying the charcoal marker and measuring its distance from the pylorus.

Experiment [3] concerns large intestinal transit. To be noted: 50 mg/kg bisacodyl given orally, rat; cited from earlier work.

Turning to `CC(=O)Oc1ccc(C(c2ccc(OC(C)=O)cc2)c2ccccn2)cc1` [Bisacodyl, bisacodyl], the fecal output entry in experiment [1] is reported as “increased fecal output”. Also, in experiment [2] (bisacodyl 25 mg/kg oral, rat, charcoal marker, 60 min after dosing), the Mean % traveled is 80.7%. In addition, in experiment [2] (compared to vehicle control, bisacodyl 25 mg/kg oral, rat), the “% Increase” value is 1%. The “small bowel transit compared with control” value in experiment [2] (rats treated with simethicone alone or bisacodyl alone) is reported as “not different from control”. Also, the large intestinal transit entry in experiment [3] was “significantly stimulated”.
